PubChem BioAssay AID256 (DTP/NCI, 2004)
Values joined by “and” are separate entries in the source; they are usually repeats but may differ in a detail not shown here. Equal values may be shown once. Inconclusive results and toxic doses are left out.

Test system: CD2F1 mice, L1210 leukemia ip, survival T/C
Test: NCI In Vivo Anticancer Drug Screen. Data for tumor model L1210 Leukemia (intraperitoneal) in CD2F1 (CDF1) mice
Conditions: endpoint: mean survival time, higher = longer survival
Summary of the method: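 Read-out first: treated-group measurement over vehicle-control measurement, expressed as a ratio. Animals bore a transplanted tumor line and were dosed with compound or vehicle.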

[1] = dose: 12.5 mg/kg/injection, schedule: Q01DX009 (ip), vehicle: saline with Tween-80
[2] = dose: 25.0 mg/kg/injection, schedule: Q01DX009 (ip), vehicle: saline with Tween-80
[3] = dose: 50.0 mg/kg/injection, schedule: Q01DX009 (ip), vehicle: saline with Tween-80
[4] = dose: 100.0 mg/kg/injection, schedule: Q01DX009 (ip), vehicle: saline with Tween-80
[5] = dose: 100.0 mg/kg/injection, schedule: Q04DX002 (ip), vehicle: saline with Tween-80
[6] = dose: 100.0 mg/kg/injection, schedule: Q04DX003 (ip), vehicle: saline with Tween-80
[7] = dose: 200.0 mg/kg/injection, schedule: Q04DX003 (ip), vehicle: saline with Tween-80
[8] = dose: 400.0 mg/kg/injection, schedule: Q04DX003 (ip), vehicle: saline with Tween-80
[9] = dose: 200.0 mg/kg/injection, schedule: Q01DX009 (ip), vehicle: saline with Tween-80
[10] = dose: 400.0 mg/kg/injection, schedule: Q01DX009 (ip), vehicle: saline with Tween-80
[11] = dose: 100.0 mg/kg/injection, schedule: Q01DX009 (ip), vehicle: saline
[12] = dose: 200.0 mg/kg/injection, schedule: Q01DX009 (ip), vehicle: saline
[13] = dose: 50.0 mg/kg/injection, schedule: Q01DX009 (ip), vehicle: saline

SMILES: COc1ccc2nc3c(C)c4ccn(O)cc4c(C)c3c2c1
- T/C (dose: 25.0 mg/kg/injection, schedule: Q04DX003 (ip), vehicle: water): 106 % of control
- T/C (dose: 50.0 mg/kg/injection, schedule: Q04DX003 (ip), vehicle: water): 111 % of control
- T/C (dose: 100.0 mg/kg/injection, schedule: Q04DX003 (ip), vehicle: water): 114 % of control
- T/C (dose: 178.0 mg/kg/injection, schedule: Q04DX003 (ip), vehicle: other): 105 % of control
- T/C (dose: 266.0 mg/kg/injection, schedule: Q04DX003 (ip), vehicle: other): 103 % of control
- T/C (dose: 400.0 mg/kg/injection, schedule: Q04DX003 (ip), vehicle: other): 102 % of control
- T/C (dose: 600.0 mg/kg/injection, schedule: Q04DX003 (ip), vehicle: other): 103 % of control

SMILES: COc1cc(OC)c(NC(=O)ON2C(=O)c3ccccc3C2=O)cc1Cl
- T/C (dose: 0.19 mg/kg/injection, schedule: Q01DX009 (ip), vehicle: saline with Tween-80): 97 % of control
- T/C (dose: 0.39 mg/kg/injection, schedule: Q01DX009 (ip), vehicle: saline with Tween-80): 94 % of control
- T/C (dose: 0.78 mg/kg/injection, schedule: Q01DX009 (ip), vehicle: saline with Tween-80): 100 % of control
- T/C (dose: 1.56 mg/kg/injection, schedule: Q01DX009 (ip), vehicle: saline with Tween-80): 97 % of control
- T/C (dose: 3.12 mg/kg/injection, schedule: Q01DX009 (ip), vehicle: saline with Tween-80): 116 % of control and 96 % of control
- T/C (dose: 6.25 mg/kg/injection, schedule: Q01DX009 (ip), vehicle: saline with Tween-80): 100 % of control
- T/C [1]: 103 % of control
- T/C [2]: 103 % of control
- T/C [3]: 101 % of control
- T/C [4]: 103 % of control

SMILES: C=CC(=O)c1ccccc1
- T/C [5]: 111 % of control

SMILES: S=C1SCCCS1
- T/C (dose: 75.0 mg/kg/injection, schedule: Q04DX003 (ip), vehicle: Klucel (hydroxypropylcellulose) (HPC)): 103 % of control
- T/C (dose: 150.0 mg/kg/injection, schedule: Q04DX003 (ip), vehicle: Klucel (hydroxypropylcellulose) (HPC)): 98 % of control
- T/C (dose: 300.0 mg/kg/injection, schedule: Q04DX003 (ip), vehicle: Klucel (hydroxypropylcellulose) (HPC)): 98 % of control

SMILES: COc1cc(C=Nc2cccc(F)c2)ccc1N(CCCl)CCCl
- T/C (dose: 16.0 mg/kg/injection, schedule: Q01DX015 (ip), vehicle: saline): 157 % of control
- T/C (dose: 25.0 mg/kg/injection, schedule: Q01DX001 (ip), vehicle: other): 121 % of control
- T/C (dose: 50.0 mg/kg/injection, schedule: Q01DX001 (ip), vehicle: other): 119 % of control

SMILES: Cc1ccnc(NC2=CC(=O)C(=O)c3ccccc32)c1
- T/C (dose: 100.0 mg/kg/injection, schedule: Q01DX009 (ip), vehicle: saline sonified): 108 % of control
- T/C (dose: 200.0 mg/kg/injection, schedule: Q01DX009 (ip), vehicle: saline sonified): 103 % of control

SMILES: Cc1cc(C)c(CN)cc1C
- T/C (dose: 5.0 mg/kg/injection, schedule: Q01DX009 (ip), vehicle: saline with Tween-80): 96 % of control
- T/C (dose: 10.0 mg/kg/injection, schedule: Q01DX009 (ip), vehicle: saline with Tween-80): 105 % of control
- T/C (dose: 20.0 mg/kg/injection, schedule: Q01DX009 (ip), vehicle: saline with Tween-80): 92 % of control

SMILES: COc1ccc(C(=O)C/C(=N\N(C(=O)c2ccc(OC)cc2)c2ccccc2)c2ccc(OC)cc2)cc1
- T/C [6]: 95 % of control
- T/C [7]: 97 % of control

SMILES: Cc1ccc2c(C)cc(=O)[nH]c2c1
- T/C [6]: 95 % of control
- T/C [7]: 95 % of control
- T/C [8]: 101 % of control

SMILES: C1CC[N-]CC1.C1CC[N-]CC1.[Cl][Rh]([Cl])[Cl]
- T/C [1]: 90 % of control
- T/C [2]: 98 % of control
- T/C [3]: 100 % of control
- T/C [4]: 94 % of control
- T/C [9]: 96 % of control

SMILES: NC(=O)C(CCCCC(C(N)=O)C(N)=O)C(N)=O
- T/C [5]: 96 % of control
- T/C (dose: 200.0 mg/kg/injection, schedule: Q04DX002 (ip), vehicle: saline with Tween-80): 108 % of control
- T/C (dose: 400.0 mg/kg/injection, schedule: Q04DX002 (ip), vehicle: saline with Tween-80): 108 % of control

SMILES: CCOC(=O)C1SCSCC1=O (centres undefined)
- T/C [4]: 101 % of control
- T/C [9]: 101 % of control
- T/C [10]: 98 % of control

SMILES: Clc1ccc(-c2cc(C3CO3)c3cc(Cl)cc(Cl)c3n2)cc1 (centres undefined)
- T/C (dose: 100.0 mg/kg/injection, schedule: Q01DX001 (ip), vehicle: saline): 91 % of control
- T/C (dose: 200.0 mg/kg/injection, schedule: Q01DX001 (ip), vehicle: saline): 97 % of control
- T/C (dose: 400.0 mg/kg/injection, schedule: Q01DX001 (ip), vehicle: saline): 91 % of control

SMILES: Cc1ccc(S(=O)(=O)c2ccccc2)cc1
- T/C [11]: 88 % of control
- T/C [12]: 87 % of control
- T/C (dose: 400.0 mg/kg/injection, schedule: Q01DX009 (ip), vehicle: saline): 92 % of control

SMILES: CC1CCC(=O)C2(C)CC3OC(=O)C(C)C3C=C12 (centres undefined)
- T/C [6]: 94 % of control
- T/C [7]: 93 % of control
- T/C [8]: 86 % of control

SMILES: N#Cc1ccc(CO)cc1Br
- T/C (dose: 100.0 mg/kg/injection, schedule: Q04DX003 (ip), vehicle: saline): 97 % of control
- T/C (dose: 200.0 mg/kg/injection, schedule: Q04DX003 (ip), vehicle: saline): 90 % of control
- T/C (dose: 400.0 mg/kg/injection, schedule: Q04DX003 (ip), vehicle: saline): 92 % of control

SMILES: Cc1[nH]nc2c1CCCC2
- T/C (dose: 100.0 mg/kg/injection, schedule: Q01DX009 (ip), vehicle: other): 101 % of control
- T/C (dose: 200.0 mg/kg/injection, schedule: Q01DX009 (ip), vehicle: other): 97 % of control

SMILES: CO[C@H]1[C@H](O)[C@H](O[C@H]2CC[C@@]3(C)[C@H](CC[C@@H]4[C@@H]3CC[C@]3(C)[C@@H](C5=CC(=O)OC5)CC[C@]43O)C2)O[C@@H](C)[C@@H]1O
- T/C (dose: 0.5 mg/kg/injection, schedule: Q01DX001 (ip), vehicle: saline): 105 % of control
- T/C (dose: 1.0 mg/kg/injection, schedule: Q01DX001 (ip), vehicle: saline): 105 % of control
- T/C (dose: 2.0 mg/kg/injection, schedule: Q01DX001 (ip), vehicle: saline): 108 % of control
- T/C (dose: 4.0 mg/kg/injection, schedule: Q01DX001 (ip), vehicle: saline): 109 % of control

SMILES: CC(=O)c1cc(C)c[n+](C2OC(COC(=O)c3ccccc3)C(OC(=O)c3ccccc3)C2O)c1 (centres undefined)
- T/C (dose: 3.13 mg/kg/injection, schedule: Q01DX005 (ip), vehicle: water): 100 % of control
- T/C (dose: 6.25 mg/kg/injection, schedule: Q01DX005 (ip), vehicle: water): 98 % of control
- T/C (dose: 12.5 mg/kg/injection, schedule: Q01DX005 (ip), vehicle: water): 106 % of control
- T/C (dose: 25.0 mg/kg/injection, schedule: Q01DX005 (ip), vehicle: water): 93 % of control
- T/C (dose: 50.0 mg/kg/injection, schedule: Q01DX005 (ip), vehicle: water): 100 % of control and 101 % of control
- T/C (dose: 100.0 mg/kg/injection, schedule: Q01DX005 (ip), vehicle: water): 93 % of control

SMILES: [Cl][Pt+2][Cl].[NH-]CC([NH-])CN
- T/C (dose: 0.39 mg/kg/injection, schedule: Q04DX003 (ip), vehicle: saline): 89 % of control
- T/C (dose: 0.78 mg/kg/injection, schedule: Q04DX003 (ip), vehicle: saline): 97 % of control
- T/C (dose: 1.56 mg/kg/injection, schedule: Q04DX003 (ip), vehicle: saline): 103 % of control
- T/C (dose: 3.12 mg/kg/injection, schedule: Q04DX003 (ip), vehicle: saline): 103 % of control
- T/C (dose: 6.25 mg/kg/injection, schedule: Q04DX003 (ip), vehicle: saline): 111 % of control
- T/C (dose: 12.5 mg/kg/injection, schedule: Q04DX003 (ip), vehicle: saline): 109 % of control

SMILES: OCCc1cc[nH]c1
- T/C [4]: 104 % of control
- T/C [6]: 95 % of control
- T/C [9]: 101 % of control
- T/C [7]: 97 % of control
- T/C [10]: 113 % of control
- T/C [8]: 97 % of control

SMILES: COC1OC2COC(c3ccccc3)OC2C(O)C1N (centres undefined)
- T/C [2]: 96 % of control
- T/C [3]: 100 % of control
- T/C [4]: 103 % of control

SMILES: CC(C)(O)C(=O)O
- T/C [13]: 96 % of control
- T/C [11]: 93 % of control
- T/C [12]: 86 % of control

SMILES: CC(=O)NS(=O)(=O)c1ccc(N=Cc2ccc3c(c2)OCO3)cc1
- T/C [4]: 100 % of control
- T/C [9]: 95 % of control
- T/C [10]: 94 % of control

SMILES: NC(CSC(c1ccccc1)(c1ccccc1)c1cccc2ccccc12)C(=O)O (centres undefined)
- T/C (dose: 25.0 mg/kg/injection, schedule: Q01DX009 (ip), vehicle: saline): 100 % of control
- T/C [13]: 100 % of control
- T/C [11]: 110 % of control
- T/C [12]: 102 % of control
